A short description of this data set: gradient 5% acetonitrile 3 min, to 50% in 2 min, to 85% in 15 min, held 3 min, 100 µL/min. The conditions noted are these: column: Zorbax Extend-C18 2.1 x 50 mm; eluents: water / acetonitrile, 0.1% formic acid. In short, it runs like this:
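Standards, all pure, were combined into mixtures of ~100 molecules and run at 100 μL/min on a Zorbax Extend-C18 column (2.1 × 50 mm, 1.8 μm) with water and acetonitrile, each containing 0.1% formic acid. A coupled quadrupole time-of-flight mass spectrometer operated in positive and negative ionization mode. Retention time values come from computationally picked adduct peaks, each inspected manually.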
`COC(=O)c1ccc2c(=O)n(-c3cc(OC)cc(OC)c3)c(N3CCC(C)CC3)nc2c1` displayed an RP-LC retention time of 1210 s.
In turn, `COc1ccc(CCN2CC(=O)N(c3ccc(C)c(C)c3)[C@@H]3CS(=O)(=O)C[C@@H]32)cc1` had an RP-LC retention time of 886 s.
With `Cc1ccccc1CNC(=O)C1(C)CCCN(C(=O)Nc2cccc(F)c2)C1` (stereo not drawn), the RP-LC retention time worked out at 937 s.
The same measure for `Cc1ccc(Nc2cc(C)nc3ccnn23)cc1`: 620 s; for `Cc1ccc(S(=O)(=O)N2CC(C(=O)NC3CCCC3)Oc3ccc(C)cc32)cc1` (stereo not drawn): 1140 s.
The compound `Cc1nc(-c2cnccn2)nc2c1CCC(=O)N2CC1CCCO1` (stereo not drawn) gave an RP-LC retention time of 626 s.
With `COc1ccccc1CCC(=O)NC(C)C(=O)Nc1nc2ccccc2[nH]1` (stereo not drawn), the RP-LC retention time came to 658 s.
Consider `Cc1ccc(NC(=O)Cn2c(-c3cnccn3)nc(C)c(C)c2=O)cc1C`, for which the RP-LC retention time turned out to be 774 s.
`Cc1nc(C(=O)NCCc2ccc(Cl)cc2)c(C)n1C1CCN(S(C)(=O)=O)CC1`: the RP-LC retention time was 689 s.
For `CCn1ccc2sc(C)c(C(=O)N3CCN(CC(C)C)CC3)c2c1=O`, the RP-LC retention time was determined as 574 s.
`CSc1ccc(CNC(=O)Cn2cnc3nc4c(cc3c2=O)CC(C)CC4)cc1` (stereo not drawn) showed an RP-LC retention time of 781 s.
The same measure for `O=C(COc1ccc2ccccc2c1)NCC1CCN(c2ncccn2)CC1`: 762 s.
In turn, `O=C(NCc1ccccc1C(F)(F)F)c1ccc2ncnc(N3CCCC3)c2c1` displayed an RP-LC retention time of 692 s.
Next, `COc1ccc(C(=O)CN(C(=O)N2CCN(C)CC2)S(=O)(=O)c2ccc(C)cc2)cc1`: 588 s; `Cc1noc(-c2ccc(NC(=O)C3c4ccccc4Oc4ccccc43)cc2)n1`: 983 s; `CC1(c2noc(C3CC3)n2)CCN(C(=O)CCc2cc(Cl)no2)CC1`: 853 s.
`CC1CCCN(C(=O)c2cc3c(s2)N(C)CCC3)C1` (stereo not drawn) showed an RP-LC retention time of 976 s.
The same measure for `COc1ccc(NC(=O)CN2CCc3c(c(=O)c4cc(C)ccc4n3C)C2)cc1Cl`: 638 s.
In turn, `Cc1ccc(NC(=O)CCC(=O)N2CCSc3nc(C)cc(C)c32)cc1` yielded an RP-LC retention time of 717 s.
`CCCCNC(=O)c1ccc2c(c1)N(C)C(=O)C1CCCCN21` (stereo not drawn): the RP-LC retention time amounted to 813 s.
For `Cn1ccc2c(cc(C(=O)NCCCc3ccccc3)n2C)c1=O`, the RP-LC retention time worked out at 736 s.
The same measure for `Cc1cc(C)cc(NC(=O)Cn2cccc(-c3nc(-c4ccc(Br)cc4)no3)c2=O)c1`: 1060 s; for `Cc1ccc(NC(=O)N2CCc3cn(C)c4cccc(c34)C2)cc1C`: 981 s; for `CCCNC(=O)C(=O)NCC(c1ccc2c(c1)OCO2)N1CCOCC1` (stereo not drawn): 595 s.
In the case of `O=C(Nc1nnc(-c2cccs2)o1)c1cc(Cl)ccc1Cl`, the RP-LC retention time came out at 764 s.
The same measure for `Cc1ccc2c(c1)N(Cc1ccc(F)cc1)N=C(C(=O)N1CCOCC1)S2(=O)=O`: 839 s.
Next, `CCc1ccc(NC(=O)Cn2nc(N3CCCC(C)C3)c3ccccc3c2=O)cc1` (stereo not drawn): 1160 s; `CC(C)CC(=O)Nc1ccc(OCc2cc(C(=O)NC(C)C)no2)cc1`: 816 s; `CCc1ccc(NC(=O)N(C)CCc2noc(COc3ccccc3)n2)cc1`: 962 s.
The same measure for `CCOC(=O)C1CCN(C(=O)C2CCN(c3cnc4nccnc4c3)CC2)CC1`: 663 s; for `CCOC(=O)c1c(C)[nH]c(C(=O)N2CCCC(C(=O)NCc3ccccc3OC)C2)c1C` (stereo not drawn): 785 s; for `Cc1ccccc1N1CCN(C(=O)c2ccnc(N3CCCC3)n2)CC1`: 996 s.
`Clc1ccc(-c2nc3cnccn3c2Nc2cccc(Cl)c2)cc1`: the RP-LC retention time amounted to 1060 s.

For the origin of these results see the METLIN SMRT retention time set (Domingo-Almenara et al. 2019).
